Source: patent publication US6509335B1, “Benzoxazinoes/benzothiazinones as serine protease inhibitors” (Warner-Lambert Company, priority 1998, dated 2003)

Tests used:
[1] = biological target: T1, human tissue factor/factor VIIa complex (Homo sapiens, UniProt P08709); experiment: Determination of tissue factor/factor VIIa inhibition (Spectrozyme VIIa); assay type: biochemical; details: read-out: VIIa % inhib. @ 100 μM
T1 construct: 50 μL human factor VIIa (Enzyme Research Laboratories); purchased Enzyme Research Laboratories (factor VIIa); American Diagnostica (tissue factor)
T1 sequence (P08709 213-466 limits assumed): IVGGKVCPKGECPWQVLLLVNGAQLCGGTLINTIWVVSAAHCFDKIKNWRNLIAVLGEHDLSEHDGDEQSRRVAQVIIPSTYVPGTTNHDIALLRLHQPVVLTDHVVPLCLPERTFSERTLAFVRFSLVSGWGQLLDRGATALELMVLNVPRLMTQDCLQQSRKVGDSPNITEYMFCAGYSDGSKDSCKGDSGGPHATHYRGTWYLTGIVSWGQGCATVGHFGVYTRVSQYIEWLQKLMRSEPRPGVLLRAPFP
T1 sequence (P08709 61-212 limits assumed): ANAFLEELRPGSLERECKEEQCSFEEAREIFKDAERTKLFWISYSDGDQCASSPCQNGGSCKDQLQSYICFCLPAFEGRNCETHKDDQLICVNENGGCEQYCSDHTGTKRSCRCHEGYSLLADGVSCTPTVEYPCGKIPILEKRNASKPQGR
T1 sequence (P13726 33-295 partner): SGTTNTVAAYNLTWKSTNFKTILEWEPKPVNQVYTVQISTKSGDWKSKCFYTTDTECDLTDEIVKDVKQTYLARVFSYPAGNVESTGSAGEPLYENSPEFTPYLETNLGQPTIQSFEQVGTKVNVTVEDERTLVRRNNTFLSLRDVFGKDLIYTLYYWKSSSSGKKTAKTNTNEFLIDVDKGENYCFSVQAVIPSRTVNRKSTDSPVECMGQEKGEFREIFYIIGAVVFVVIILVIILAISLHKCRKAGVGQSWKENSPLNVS
Procedure: The ability of compounds to act as inhibitors of the catalytic activity of human tissue factor/factor VIIa complex is assessed by determination of that concentration of test substance that inhibits by 50% (IC50 the ability of a complex of human recombinant tissue factor/factor VIIa to cleave the chromogenic substrate Spectrozyme VIIa (CH3SO2-D-CHA-Arg-pNA*AcOH, American Diagnostica). Typically, 50 μL human factor VIIa (Enzyme Research Laboratories) is incubated for 10 minutes as a 1:1 mixture (5 nM final each) with 95 μL recombinant human tissue factor (American Diagnostica) in a modified HBSA buffer (10 mM Hepes, 5 mM CaCl2, 0.1% BSA, pH 8.0). Then 5 μL of the test substance in DMSO (2% final) is added and incubated for 60 minutes at room temperature. Following preheating to 37° C. for 5 minutes, to this mixture is added 100 μL of Spectrozyme VIIa (500 μM final) in modified HBSA, and the velocity of Spectrozyme VIIa hydrolysis is determined at 37° C. by measuring the optical density at an OD405 nm every 10 seconds over 5 minutes using a ThermoMax® Kinetic Microplate Reader.

[2] = test system: human trypsin; experiment: Determination of trypsin IC50 (chromogenic substrate S2222); assay type: biochemical
Procedure: The ability of compounds to act as inhibitors of human trypsin catalytic activity is assessed by determination of that concentration of test substance that inhibits by 50% (IC50) the ability of human trypsin to cleave the chromogenic substrate S2222 (N-Bz-L-Ile-L-Glu-L-Gly-L-Arg-p-nitroanilide. HCl, DiaPharma). Typically, 145 μL human trypsin (0.5 nM final) in 10 mM HEPES, 150 mM NaCl, 0.1% BSA, and 5 μL of the test substance in DMSO (2% final) are incubated for 60 minutes at room temperature. Following preheating to 37° C. for 5 minutes, to this mixture is added 100 μL of S2222 in HBSA buffer (100 μM final), and the velocity of S2222 hydrolysis is determined at 37° C. by measuring the optical density at OD 405 nm every 10 seconds over 5 minutes using a ThermoMax® Kinetic Microplate Reader.

[3] = biological target: T2, human factor Xa (Homo sapiens, UniProt P00742); experiment: Determination of factor Xa Ki (fluorogenic S2765); assay type: biochemical
T2 construct: human factor Xa (1 nM final, Enzyme Research Laboratories); purchased Enzyme Research Laboratories
T2 sequence (P00742 235-488 limits assumed): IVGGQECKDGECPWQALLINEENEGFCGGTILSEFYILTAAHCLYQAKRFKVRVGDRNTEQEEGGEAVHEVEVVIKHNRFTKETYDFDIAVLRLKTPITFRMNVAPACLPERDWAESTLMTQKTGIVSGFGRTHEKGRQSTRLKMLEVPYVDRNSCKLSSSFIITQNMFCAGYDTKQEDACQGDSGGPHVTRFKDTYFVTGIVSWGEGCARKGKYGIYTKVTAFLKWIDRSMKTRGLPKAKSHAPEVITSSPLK
T2 sequence (P00742 41-179 limits assumed): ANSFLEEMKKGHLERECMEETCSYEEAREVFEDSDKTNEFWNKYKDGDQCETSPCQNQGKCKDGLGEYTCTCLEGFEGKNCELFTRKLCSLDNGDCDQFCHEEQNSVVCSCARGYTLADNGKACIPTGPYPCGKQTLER
Procedure: Compounds of the present invention may be prepared for assay by dissolving them in buffer to give solutions ranging in concentrations from 1 to 100 μM. In an assay to determine the inhibitory dissociation constant, Ki, for a given compound, a chromogenic or fluorogenic substrate of factor Xa would be added to a solution containing a test compound and factor Xa; the resulting catalytic activity of the enzyme is spectrophotometrically determined. This assay is well-known to those skilled in the art and is commonly used to determine antithrombotic activity.
For Ki determinations, the assay conditions were essentially the same as above except for the following. The concentration of factor Xa was 50 pM, and that of the substrate, in this case a fluorogenic S2765 (i.e. S2765 with AMC tag instead of pNA, California Peptide Research), was over the range of 10 to 500 μM. The test compound and substrate in HBSA buffer were incubated as above, and the reaction was initiated with enzyme-buffer. The data (steady-state velocity at various concentrations of the substrate and the inhibitors) of the competitive inhibition was analyzed using the methods described by Segel (Enzyme Kinetics, Wiley Interscience Publications, 1993). […]

[4] = biological target: T3, human thrombin (Homo sapiens, UniProt P00734); experiment: Determination of thrombin IC50 (chromogenic substrate Chromozym TH); assay type: biochemical
T3 construct: regulates the generation of thrombin from its zymogen prothrombin; purchased Enzyme Research Laboratories
Procedure: The ability of compounds to act as inhibitors of human thrombin catalytic activity is assessed by determination of that concentration of test substance that inhibits by 50% (IC50) the ability of human thrombin to cleave the chromogenic substrate Chromozym TH (Tosyl-Gly-Pro-Arg-pNA*Ac, Boehringer Mannheim). Typically, 145 μL human thrombin (0.75 nM, Enzyme Research Laboratories) in a HPB buffer (10 mM HEPES, 100 mM NaCl, 0.05% BSA, 0.1% PEG-8000, pH 7.4) and 5 μL of test substance in DMSO (2% final) are incubated for 60 minutes at room temperature. Following preheating to 37° C. for 5 minutes, to this mixture is added 100 μL of Chromozym TH (24 μM final) in HPB buffer. The velocity of Chromozym TH hydrolysis is determined at 37° C. by measuring the initial rate of change of the optical density at OD 405 nm every 10 seconds for 5 minutes using a ThermoMax® Kinetic Microplate Reader.

[5] = biological target: T2, human factor Xa; experiment: Determination of factor Xa IC50 (chromogenic substrate S2765); assay type: biochemical
Procedure: The ability of compounds to act as inhibitors of human factor Xa catalytic activity is assessed by determination of that concentration of test substance that inhibits by 50% (IC50) the ability of human factor Xa to cleave the chromogenic substrate S2765 (N-CBz-D-Arg-L-Gly-L-Arg-p-nitroanilide. 2HCl, DiaPharma). Typically, 145 μL human factor Xa (1 nM final, Enzyme Research Laboratories) in 10 mM HEPES, 150 mM NaCl, 0.1% BSA, pH 7.4 (HBSA buffer), and 5 μL of test substance in DMSO (2% final) are incubated for 60 minutes at room temperature. Following preheating to 37° C. for 5 minutes, to this mixture is added 100 μL of S2765 (400 μM final) in HBSA buffer. The velocity of S2765 hydrolysis is determined at 37° C. by measuring the initial rate of change of the optical density at OD405 nm every 10 seconds for 5 minutes using a ThermoMax® Kinetic Microplate Reader.

[6] = test system: pooled plasma from rabbits; experiment: In vitro diluted prothrombin time (dPT) assay, rabbit plasma; details: for concentration that causes 2-fold prolongation of baseline dPT: 2X; for concentration that causes 5-fold prolongation of baseline dPT: 5X; for concentration that causes 10-fold prolongation of baseline dPT: 10X
Procedure: (§1) Rat, rabbit, dog, and human blood (typically 1.8 mL) was collected and added to a sodium citrate solution (3.8%) to afford a 1:10 dilution. After centrifugation (2000 g for 10 minutes), the blood plasma was stored at −70° C. to 0° C. […] […] Fibrin formation and the time required for a clot to form were determined using an automated ST4 Clot Detection System in duplicate.

[7] = test system: pooled plasma from dogs; experiment: In vitro diluted prothrombin time (dPT) assay, dog plasma; details: for concentration that causes 2-fold prolongation of baseline dPT: 2X; for concentration that causes 5-fold prolongation of baseline dPT: 5X; for concentration that causes 10-fold prolongation of baseline dPT: 10X
Procedure: as §1

[8] = test system: pooled plasma from human volunteers; experiment: In vitro diluted prothrombin time (dPT) assay, human plasma; details: for concentration that causes 2-fold prolongation of baseline dPT: 2X; for concentration that causes 5-fold prolongation of baseline dPT: 5X; for concentration that causes 10-fold prolongation of baseline dPT: 10X
Procedure: as §1

[9] = test system: rabbit; experiment: Rabbit veno-venous shunt model of thrombosis; assay type: in vivo
Procedure: In that model, a plastic shunt which contains cotton thread was inserted into abdominal vena cava and thrombus developed inside the shunt under control conditions. The end points of the experiment are the time to occlusion (TTO) and thrombus weight. […] Three doses have been tested in a total of 15 rabbits (5 rabbits in each group): 30 μg/kg+1 μg/kg/min, 60 μg/kg+2 μg/kg/min, and 90 μg/kg+3 μg/kg/min. […] The net thrombus weight was reduced from 56.4±4.3 to 21.3±7.8 mg in that group.

[10] = biological target: T4, human prothrombinase (PTase) complex (Homo sapiens, UniProt P00742); experiment: In vitro assay for human prothrombinase; assay type: biochemical; details: PTase activity expressed by thrombin activity
T4 construct: 2.5 pM human factor Xa (Enzyme Research Laboratories); purchased Enzyme Research Laboratories
T4 sequence (P00742 235-488 limits assumed): as the sequence (P00742 235-488 limits assumed) above
T4 sequence (P00742 41-179 limits assumed): as the sequence (P00742 41-179 limits assumed) above
T4 sequence (P12259 29-737 partner limits assumed): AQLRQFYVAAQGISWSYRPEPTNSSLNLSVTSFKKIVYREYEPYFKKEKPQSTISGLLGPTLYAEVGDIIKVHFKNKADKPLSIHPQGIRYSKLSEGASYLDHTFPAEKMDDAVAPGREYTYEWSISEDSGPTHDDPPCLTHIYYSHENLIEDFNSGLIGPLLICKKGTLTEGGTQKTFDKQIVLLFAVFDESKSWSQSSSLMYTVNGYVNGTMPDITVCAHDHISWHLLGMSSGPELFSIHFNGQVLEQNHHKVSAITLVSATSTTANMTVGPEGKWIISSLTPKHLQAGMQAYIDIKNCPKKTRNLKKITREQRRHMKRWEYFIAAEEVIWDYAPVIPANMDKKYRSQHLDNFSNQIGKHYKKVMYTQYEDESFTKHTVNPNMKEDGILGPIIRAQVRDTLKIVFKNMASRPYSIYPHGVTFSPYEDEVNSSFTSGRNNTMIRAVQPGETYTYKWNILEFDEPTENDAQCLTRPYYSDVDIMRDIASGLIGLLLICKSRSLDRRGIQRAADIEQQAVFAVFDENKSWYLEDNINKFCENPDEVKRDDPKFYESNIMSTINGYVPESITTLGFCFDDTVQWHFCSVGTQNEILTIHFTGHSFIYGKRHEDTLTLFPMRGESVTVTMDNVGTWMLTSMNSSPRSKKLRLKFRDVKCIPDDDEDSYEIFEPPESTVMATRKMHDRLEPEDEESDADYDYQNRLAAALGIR
T4 sequence (P12259 1574-2224 partner limits assumed): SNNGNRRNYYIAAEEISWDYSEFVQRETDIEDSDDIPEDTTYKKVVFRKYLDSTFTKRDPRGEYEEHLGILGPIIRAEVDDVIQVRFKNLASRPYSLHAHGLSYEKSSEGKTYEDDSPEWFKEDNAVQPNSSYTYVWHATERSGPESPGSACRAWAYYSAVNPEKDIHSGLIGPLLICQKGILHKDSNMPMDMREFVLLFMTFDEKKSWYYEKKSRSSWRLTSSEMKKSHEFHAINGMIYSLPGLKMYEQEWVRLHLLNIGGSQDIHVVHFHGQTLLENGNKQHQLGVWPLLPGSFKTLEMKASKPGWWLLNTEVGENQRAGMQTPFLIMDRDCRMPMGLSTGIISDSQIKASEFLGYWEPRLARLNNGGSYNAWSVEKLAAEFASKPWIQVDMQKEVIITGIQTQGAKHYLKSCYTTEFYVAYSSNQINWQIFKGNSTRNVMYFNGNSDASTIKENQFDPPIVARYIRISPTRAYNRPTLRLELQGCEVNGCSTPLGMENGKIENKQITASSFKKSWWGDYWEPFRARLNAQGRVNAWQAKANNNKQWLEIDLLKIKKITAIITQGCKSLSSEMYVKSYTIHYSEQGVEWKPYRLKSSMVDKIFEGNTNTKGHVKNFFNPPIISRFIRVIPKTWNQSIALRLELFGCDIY
Procedure: For determination of IC50 (PTase) of the compounds of the invention, PTase activity was expressed by thrombin activity.
PTase reaction was performed in 100 μL of mixture containing PTase (20 μM) PCPS (Avanti Polar Lipids following a procedure modified from Barenholz et al., Biochemistry, 1977;16:2806-2810) in a 30:70 ratio, 2.5 nM human factor Va (Enzyme Research Laboratories) and 2.5 pM human factor Xa (Enzyme Research Laboratories) in modified HEPES buffer (10 mM Hepes, 150 mM NaCl, 0.1% PEG-8000, 0.05% BSA, 2.5 mM CaCl2, pH 7.4), 3 μM human prothrombin (Enzyme Research Laboratories) and varied concentrations of the test compounds (1 nM to 100 μM in DMSO, 2% final). Reaction was started by co-incubating PTase with test compound for 60 minutes at room temperature, followed by addition of prothrombin for 6 minutes at room temperature. Next, the reaction was quenched by the addition of 100 μL of 20 mM EDTA. Activity of the thrombin (product) is then measured in the presence of 50 μL S2238 (250 μM final, H-D-Phe-Pip-Arg-pNA*Ac, DiaPharma) as substrate by measuring the change at 37° C. in OD405 nm for 5 minutes at 10 second intervals using a ThermoMax® Kinetic Microplate Reader.

[11] = 30 μg/kg+1, 60 μg/kg+2, 90 μg/kg+3 μg/kg/min
[12] = highest dose 90 μg/kg+3 μg/kg/min

Structure (SMILES)	inhibition at 100 µM [1]	IC50 [2]	IC50 [4]	IC50 [5]	concentration that causes 2-fold prolongation of baseline dPT [6]	concentration that causes 5-fold prolongation of baseline dPT [6]	concentration that causes 10-fold prolongation of baseline dPT [6]	concentration that causes 2-fold prolongation of baseline dPT [7]	concentration that causes 5-fold prolongation of baseline dPT [7]	concentration that causes 10-fold prolongation of baseline dPT [7]	concentration that causes 2-fold prolongation of baseline dPT [8]	concentration that causes 5-fold prolongation of baseline dPT [8]	concentration that causes 10-fold prolongation of baseline dPT [8]	other results
CC(=N)N1CC[C@H](Oc2ccc([C@H](Cc3ccc4ccc(C(=N)N)cc4c3)C(=O)O)cc2)C1 [DX-9065a, reference compound]					1.4 µM	21.8 µM	96.8 μM	2.5 µM	51.1 µM	118.6 μM	0.06 µM	0.53 µM	1.3 μM	
C[C@@H]1CCC[C@H](C)N1CCCCCN1C(=O)C(c2cccc(C(=N)N)c2)Sc2ccccc21 (stereo partly drawn) [Example 3, 3-(4-5-[(2R,6S)-2,6-Dimethylhexahydro-1-pyridinyl]pentyl-3-oxo-3,4-dihydro-2H-1,4-benzothiazin-2-yl)-1-benzenecarboximidamide]	31%	782 nM	1780 nM	108 nM										

The next lines start with results.

inhibition at 100 µM [1]	IC50 [2]	IC50 [4]	IC50 [5]	Structure (SMILES)	concentration that causes 2-fold prolongation of baseline dPT [6]	concentration that causes 5-fold prolongation of baseline dPT [6]	concentration that causes 10-fold prolongation of baseline dPT [6]	concentration that causes 2-fold prolongation of baseline dPT [7]	concentration that causes 5-fold prolongation of baseline dPT [7]	concentration that causes 10-fold prolongation of baseline dPT [7]	concentration that causes 2-fold prolongation of baseline dPT [8]	concentration that causes 5-fold prolongation of baseline dPT [8]	concentration that causes 10-fold prolongation of baseline dPT [8]	other results
37%	750 nM	1390 nM	3 nM	C[C@@H]1CCC[C@H](C)N1CCCCCN1C(=O)[C@H](c2cc(C(=N)N)ccc2O)Oc2ccccc21 [Example 6, 3-((2S)-4-5-[(2R,6S)-2,6-Dimethyltetrahydro-1(2H)-pyridinyl]pentyl-3-oxo-3,4-dihydro-2H-1,4-benzoxazin-2-yl)-4-hydroxybenzenecarboximidamide]										Ki [3]: 0.076 nM
30%	474 nM		7 nM	C[C@@H]1CCC[C@H](C)N1CCCCCN1C(=O)C(c2cccc(C(=N)N)c2)Oc2ccccc21 (stereo partly drawn) [Example 2, 3-(4-5-[(2R,6S)-2,6-Dimethylhexahydro-1-pyridinyl]pentyl-3-oxo-3,4-dihydro-2H-1,4-benzoxazin-2-yl)-1-benzenecarboximidamide]										net thrombus weight, dose dependence [9, 11]: reduced the net thrombus weight; time to occlusion, dose dependence [9, 11]: dose-dependently prolonged the time to occlusion; ACT ([9]; all 3 dose groups): only slight increases; animals with no occlusive thrombus formation during the 120-minute test period [9, 12]: 4 out of 5; prolongation of PT [9, 12]: 1.8 fold; prolongation of TT [9, 12]: 1.5 fold; prolongation of aPTT [9, 12]: 5.4 fold; prolongation of bleeding time [9, 12]: 2.5 fold; time to occlusion (TTO) ([9]; highest dose 90 μg/kg+3 μg/kg/min, bolus via jugular vein + infusion 140 minutes, control 16.8±5.4): 98.2 ± 21.8 min; net thrombus weight ([9]; highest dose 90 μg/kg+3 μg/kg/min, control 56.4±4.3): 21.3 ± 7.8 mg
29%	380 nM	1030 nM	< 1 nM	C[C@@H]1CCC[C@H](C)N1CCCCCN1C(=O)C(c2cc(C(=N)N)ccc2O)Oc2ccccc21 (stereo partly drawn) [Example 5, 3-(4-5-[(2R,6S)-2,6-Dimethyltetrahydro-1(2H)-pyridinyl]pentyl-3-oxo-3,4-dihydro-2H-1,4-benzoxazin-2-yl)4-hydroxybenzenecarboximidamide]	0.44 µM	0.97 µM	1.86 μM	0.84 µM	1.2 µM	1.81 μM	0.0069 µM	0.063 µM	0.157 μM	IC50 [10]: 0.17 nM
